According to patent US9475809B2, “Substituted oxopyridine derivatives and use thereof as factor xia/plasma” (BAYER PHARMA AKTIENGESELLSCHAFT, priority 2013, dated 2016):

Target: human factor XIa (Homo sapiens (Human), UniProt P03951)
Assay: Measurement of FXIa inhibition (fluorogenic peptide substrate)
Assay type: biochemical
Conditions: factor XIa from Kordia 0.45 nM; substrate Boc-Glu(OBzl)-Ala-Arg-AMC; 30 min at 22° C.
Experimental: a.1) Measurement of FXIa Inhibition
The factor XIa inhibition of the inventive substances is determined using a biochemical test system which utilizes the reaction of a peptidic factor XIa substrate to determine the enzymatic activity of human factor XIa. Here, factor XIa cleaves from the peptic factor XIa substrate the C-terminal aminomethylcoumarin (AMC), the fluorescence of which is measured. The determinations are carried out in microtitre plates.
In each case 1 μl of the diluted substance solutions is placed into the wells of white microtitre plates from Greiner (384 wells). […] After 15 min of incubation, the enzyme reaction is started by addition of 20 μl of the factor XIa substrate Boc-Glu(OBzl)-Ala-Arg-AMC dissolved in assay buffer (10 μM in assay buffer) from Bachem, the mixture is incubated at room temperature (22° C.) for 30 min and fluorescence is then measured (excitation: 360 nm, emission: 460 nm). The measured emissions of the test batches with test substance are compared to those of control batches without test substance (only dimethyl sulphoxide instead of test substance in dimethyl sulphoxide), and IC50 values are calculated from the concentration/activity relationships.

Chain of human factor XIa (P03951 388-625): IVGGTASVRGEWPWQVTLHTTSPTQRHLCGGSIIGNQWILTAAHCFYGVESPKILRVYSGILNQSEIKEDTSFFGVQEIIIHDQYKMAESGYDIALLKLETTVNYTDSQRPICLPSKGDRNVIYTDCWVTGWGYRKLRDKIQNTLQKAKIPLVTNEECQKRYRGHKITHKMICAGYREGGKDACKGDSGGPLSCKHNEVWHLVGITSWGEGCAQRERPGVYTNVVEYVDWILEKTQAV
Chain of human factor XIa (P03951 19-387 partner): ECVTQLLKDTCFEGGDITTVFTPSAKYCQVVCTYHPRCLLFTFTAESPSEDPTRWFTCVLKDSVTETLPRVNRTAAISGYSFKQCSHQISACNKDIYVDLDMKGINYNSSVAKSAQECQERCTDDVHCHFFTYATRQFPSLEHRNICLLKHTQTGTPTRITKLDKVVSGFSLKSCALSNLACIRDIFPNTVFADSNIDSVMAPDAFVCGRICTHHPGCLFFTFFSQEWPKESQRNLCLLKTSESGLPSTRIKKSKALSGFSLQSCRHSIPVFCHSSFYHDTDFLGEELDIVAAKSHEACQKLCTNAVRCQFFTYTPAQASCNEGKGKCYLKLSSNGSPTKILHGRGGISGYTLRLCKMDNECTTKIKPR

| SMILES | IC50 [nM] |
| --- | --- |
| O=C(Cn1c2c(c(-c3cc(Cl)ccc3Br)cc1=O)C(=O)CC2)Nc1ccc(-c2noc(=O)[nH]2)cc1 [Example 10, 2-[4-(2-Bromo-5-chlorophenyl)-2,5-dioxo-2,5,6,7-tetrahydro-1H-cyclopenta[b]pyridin-1-yl]-N-[4-(5-oxo-4,5-dihydro-1,2,4-oxadiazol-3-yl)phenyl]acetamide] | 190 |
| O=C(Cn1c2c(c(-c3cc(Cl)ccc3Br)cc1=O)C(=O)CC2)Nc1ccc(-c2nnn[nH]2)cc1 [Example 9, 2-[4-(2-Bromo-5-chlorophenyl)-2,5-dioxo-2,5,6,7-tetrahydro-1H-cyclopenta[b]pyridin-1-yl]-N-[4-(1H-tetrazol-5-yl)phenyl]acetamide] | 170 |
| N#Cc1ccc(Cl)cc1-c1cc(=O)n(CC(=O)Nc2ccc(-c3cc(=O)[nH][nH]3)cc2)c2c1C(=O)CC2 [Example 14, 2-[4-(5-Chloro-2-cyanophenyl)-2,5-dioxo-2,5,6,7-tetrahydro-1H-cyclopenta[b]pyridin-1-yl]-N-[4-(5-oxo-2,5-dihydro-1H-pyrazol-3-yl)phenyl]acetamide] | 140 |
| N#Cc1ccc(Cl)cc1-c1cc(=O)n(CC(=O)Nc2ccc(-c3noc(=O)[nH]3)cc2)c2c1C(=O)CCC2 [Example 16, 2-[4-(5-Chloro-2-cyanophenyl)-2,5-dioxo-5,6,7,8-tetrahydroquinolin-1(2H)-yl]-N-[4-(5-oxo-4,5-dihydro-1,2,4-oxadiazol-3-yl)phenyl]acetamide] | 77 |
| O=C(Cn1c2c(c(-c3cc(Cl)ccc3Cl)cc1=O)C(=O)CC2)Nc1ccc(-c2nc(C(F)(F)F)n[nH]2)cc1 [Example 6, 2-[4-(2,5-Dichlorophenyl)-2,5-dioxo-2,5,6,7-tetrahydro-1H-cyclopenta[b]pyridin-1-yl]-N-{4-[3-(trifluoromethyl)-1H-1,2,4-triazol-5-yl]phenyl}acetamide] | 550 |
| CN1Cc2c(c(-c3cc(Cl)ccc3Cl)cc(=O)n2CC(=O)Nc2ccc(-c3nnn[nH]3)cc2)C1=O [Example 2, 2-[4-(2,5-Dichlorophenyl)-6-methyl-2,5-dioxo-2,5,6,7-tetrahydro-1H-pyrrolo[3,4-b]pyridin-1-yl]-N-[4-(1H-tetrazol-5-yl)phenyl]acetamide] | 340 |
| O=C(Cn1c2c(c(-c3cc(Cl)ccc3Cl)cc1=O)C(=O)CC2)Nc1ccc(-c2cnc[nH]2)cc1 [Example 8, 2-[4-(2,5-Dichlorophenyl)-2,5-dioxo-2,5,6,7-tetrahydro-1H-cyclopenta[b]pyridin-1-yl]-N-[4-(1H-imidazol-5-yl)phenyl]acetamide] | 470 |
| O=C(Cn1c2c(c(-c3cc(Cl)ccc3Cl)cc1=O)C(=O)CC2)Nc1ccc(-c2nnn[nH]2)cc1 [Example 3, 2-[4-(2,5-Dichlorophenyl)-2,5-dioxo-2,5,6,7-tetrahydro-1H-cyclopenta[b]pyridin-1-yl]-N-[4-(1H-tetrazol-5-yl)phenyl]acetamide] | 230 |
| O=C(Cn1c2c(c(-c3cc(Cl)ccc3Cl)cc1=O)C(=O)CC2)Nc1ccc(-c2cc(=O)[nH][nH]2)cc1 [Example 7, 2-[4-(2,5-Dichlorophenyl)-2,5-dioxo-2,5,6,7-tetrahydro-1H-cyclopenta[b]pyridin-1-yl]-N-[4-(5-oxo-2,5-dihydro-1H-pyrazol-3-yl)phenyl]acetamide] | 130 |
| O=C(Cn1c2c(c(-c3cc(Cl)ccc3Cl)cc1=O)C(=O)CC2)Nc1ccc(C(=O)O)cc1 [Example 4, 4-({[4-(2,5-Dichlorophenyl)-2,5-dioxo-2,5,6,7-tetrahydro-1H-cyclopenta[b]pyridin-1-yl]acetyl}amino)benzoic acid] | 420 |
| N#Cc1ccc(Cl)cc1-c1cc(=O)n(CC(=O)Nc2ccc(-c3noc(=O)[nH]3)cc2)c2c1C(=O)CC2 [Example 13, 2-[4-(5-Chloro-2-cyanophenyl)-2,5-dioxo-2,5,6,7-tetrahydro-1H-cyclopenta[b]pyridin-1-yl]-N-[4-(5-oxo-4,5-dihydro-1,2,4-oxadiazol-3-yl)phenyl]acetamide] | 34 |
| O=C(Cn1c2c(c(-c3cc(Cl)ccc3C(F)(F)F)cc1=O)C(=O)CC2)Nc1ccc(-c2cc(=O)[nH][nH]2)cc1 [Example 11, 2-{4-[5-Chloro-2-(trifluoromethyl)phenyl]-2,5-dioxo-2,5,6,7-tetrahydro-1H-cyclopenta[b]pyridin-1-yl}-N -[4-(5-oxo-2,5-dihydro-1H-pyrazol-3-yl)phenyl]acetamide] | 750 |
